Source: EP3625243B1, “TAILORED CYCLODEPSIPEPTIDES AS POTENT NON-COVALENT SERINE PROTEASE INHIBITORS” (Universität Duisburg-Essen, priority 2017, dated 2018)
Where two headings read alike, the source gives them in different places.

Assays:
[1] = molecular target: HTRA1 (Homo sapiens, UniProt Q92743); experiment: Chromogenic enzyme activity assay, HTRA1
[2] = molecular target: HTRA3 (Homo sapiens, UniProt P83110); experiment: Chromogenic enzyme activity assay, HTRA3
[3] = molecular target: T1, human neutrophil elastase (Homo sapiens, UniProt P08246); experiment: Chromogenic enzyme activity assay, elastase; format: biochemical
T1 construct: purchased Enzo Life Sciences BML-SE284
T1 sequence (P08246 30-267): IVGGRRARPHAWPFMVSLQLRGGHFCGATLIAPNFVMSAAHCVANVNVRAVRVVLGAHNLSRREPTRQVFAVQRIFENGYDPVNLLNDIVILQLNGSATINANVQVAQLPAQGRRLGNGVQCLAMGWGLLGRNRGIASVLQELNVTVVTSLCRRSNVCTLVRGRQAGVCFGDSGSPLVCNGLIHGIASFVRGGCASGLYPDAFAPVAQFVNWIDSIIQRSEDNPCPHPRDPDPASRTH

[4] = molecular target: T2, HTRA2 (Homo sapiens, UniProt O43464); experiment: Chromogenic enzyme activity assay, HTRA2
T2 sequence (O43464 134-458): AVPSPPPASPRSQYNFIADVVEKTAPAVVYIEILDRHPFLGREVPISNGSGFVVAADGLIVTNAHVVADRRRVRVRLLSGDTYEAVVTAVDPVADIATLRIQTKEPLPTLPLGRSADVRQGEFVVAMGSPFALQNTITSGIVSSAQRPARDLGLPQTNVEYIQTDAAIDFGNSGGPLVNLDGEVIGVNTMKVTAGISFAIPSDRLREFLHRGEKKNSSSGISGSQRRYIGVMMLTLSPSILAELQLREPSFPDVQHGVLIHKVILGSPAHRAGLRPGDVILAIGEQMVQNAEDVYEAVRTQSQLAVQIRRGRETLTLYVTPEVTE

[5] = molecular target: T3, human pancreas chymotrypsin (Homo sapiens, UniProt P17538); experiment: Chromogenic enzyme activity assay, chymotrypsin; format: biochemical; conditions: Table 2, substrate AAF-pNA, read-out: Ki Chymo- trypsin [a]
T3 construct: purchased Sigma-Aldrich SRP6509-100

[6] = molecular target: T4, bovine pancreas trypsin (Bos taurus, UniProt P00760); experiment: Chromogenic enzyme activity assay, trypsin; format: biochemical; conditions: Table 2, read-out: Ki Trypsin [c]
T4 construct: purchased Sigma-Aldrich T1426
T4 sequence (P00760 24-246): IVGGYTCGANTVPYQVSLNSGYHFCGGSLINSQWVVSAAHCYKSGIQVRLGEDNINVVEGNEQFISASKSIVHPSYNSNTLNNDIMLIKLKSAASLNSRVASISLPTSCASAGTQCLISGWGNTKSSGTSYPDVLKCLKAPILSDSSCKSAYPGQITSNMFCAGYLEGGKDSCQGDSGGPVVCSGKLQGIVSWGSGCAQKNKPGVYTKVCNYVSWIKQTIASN

[7] = Table 3, read-out: Ki Elastase [b]
[8] = Table 2, substrate AAPV-pNA, read-out: Ki Elastase [b]

HTRA1, sequence (Q92743 158-480): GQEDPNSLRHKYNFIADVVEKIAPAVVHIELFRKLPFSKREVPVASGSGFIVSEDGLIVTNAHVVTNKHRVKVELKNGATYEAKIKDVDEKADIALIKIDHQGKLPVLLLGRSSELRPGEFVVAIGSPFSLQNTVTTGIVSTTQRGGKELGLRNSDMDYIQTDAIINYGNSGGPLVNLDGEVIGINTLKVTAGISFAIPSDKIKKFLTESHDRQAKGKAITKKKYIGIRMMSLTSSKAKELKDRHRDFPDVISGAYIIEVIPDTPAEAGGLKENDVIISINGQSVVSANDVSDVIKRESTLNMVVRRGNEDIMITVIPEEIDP
T3 sequence (P17538 19-263): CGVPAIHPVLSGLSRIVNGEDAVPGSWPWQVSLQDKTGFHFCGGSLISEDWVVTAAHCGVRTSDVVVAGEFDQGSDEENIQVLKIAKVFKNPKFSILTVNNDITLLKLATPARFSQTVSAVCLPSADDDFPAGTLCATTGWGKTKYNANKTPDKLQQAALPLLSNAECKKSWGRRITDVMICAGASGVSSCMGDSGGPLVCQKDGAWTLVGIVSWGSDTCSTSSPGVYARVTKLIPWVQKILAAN
HTRA3, sequence (P83110 111-436): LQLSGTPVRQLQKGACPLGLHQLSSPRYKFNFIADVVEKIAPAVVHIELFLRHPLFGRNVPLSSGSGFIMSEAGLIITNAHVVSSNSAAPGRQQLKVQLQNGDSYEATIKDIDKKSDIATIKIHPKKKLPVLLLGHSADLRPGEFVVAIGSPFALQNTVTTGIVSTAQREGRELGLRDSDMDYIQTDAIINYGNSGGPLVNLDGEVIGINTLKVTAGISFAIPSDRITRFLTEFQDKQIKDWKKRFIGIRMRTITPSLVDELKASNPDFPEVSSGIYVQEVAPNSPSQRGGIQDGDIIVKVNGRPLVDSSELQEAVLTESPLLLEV

Row | Ki [1] [µM] | Ki [2] [µM] | Ki [3, 7] [µM] | Ki [4] [µM] | Ki [5] [µM] | Compound | other results
1 | > 50 | > 50 | 0.5 | > 50 |  | CCC(C)[C@@H]1NC(=O)[C@@H](NC(=O)[C@H](C)NC(=O)[C@H](C)NC(=O)OCc2ccccc2)[C@@H](C)OC(=O)[C@H](C(C)C)NC(=O)[C@H](Cc2ccccc2)N(C)C(=O)[C@H](CC(C)C)N2C(=O)[C@H](CC[C@H]2O)NC1=O (some centres unmarked) [Ahp16] | 
2 |  |  |  |  | > 50 | CC(C)C[C@H]1C(=O)N(C)[C@@H](Cc2ccccc2)C(=O)N[C@@H](C(C)C)C(=O)O[C@H](c2ccccc2)[C@H](NC(=O)[C@H](C)NC(=O)[C@H](C)NC(=O)OCc2ccccc2)C(=O)N[C@@H](C(C)C)C(=O)N[C@H]2CC[C@@H](O)N1C2=O [Ahp3] | 
3 | > 50 | 17.9 | 0.2 |  |  | C#CC[C@@H]1NC(=O)[C@@H](NC(=O)[C@H](C)NC(=O)[C@H](C)NC(=O)OCc2ccccc2)[C@@H](C)OC(=O)[C@H](C(C)C)NC(=O)[C@H](Cc2ccccc2)N(C)C(=O)[C@H](CC(C)C)N2C(=O)[C@H](CC[C@H]2O)NC1=O [Ahp18] | 
4 | 2.4 ± 0.6 | 0.48 ± 0.07 |  | 0.26 ± 0.03 | > 50 | CC(C)C[C@H]1C(=O)N(C)[C@@H](Cc2ccccc2)C(=O)N[C@@H](C(C)C)C(=O)O[C@H](C(C)C)[C@H](NC(=O)[C@H](C)NC(=O)[C@H](C)NC(=O)OCc2ccccc2)C(=O)N[C@@H](C(C)C)C(=O)N[C@H]2CC[C@@H](O)N1C2=O [Ahp10] | Ki [3, 8]: 0.018 ± 0.004 µM; Ki (HTRA2) ([4]; Table 2): sub-µM
5 |  |  | > 50 |  |  | CC(C)C[C@H]1C(=O)N(C)[C@@H](Cc2ccccc2)C(=O)N[C@@H](C(C)C)C(=O)O[C@H](C)[C@H](NC(=O)[C@H](C)NC(=O)[C@H](C)NC(=O)OCc2ccccc2)C(=O)N[C@@H](C2CCCCC2)C(=O)N[C@H]2CC[C@@H](O)N1C2=O [Ahp21] | Ki ([1]; read-out: Ki HTRA1 [a], Table 3, human HTRA proteases): > 50 µM; Ki ([2]; read-out: Ki HTRA3 [a], Table 3, human HTRA proteases): > 50 µM; Ki ([4]; read-out: Ki HTRA2 [a], Table 3, human HTRA proteases): > 50 µM
6 |  |  |  |  | > 50 | CC(C)C[C@H]1C(=O)N(C)[C@@H](Cc2ccccc2)C(=O)N[C@@H](C(C)C)C(=O)O[C@H](C)[C@H](NC(=O)[C@H](Cc2ccccc2)NC(=O)[C@H](C)NC(=O)OCc2ccccc2)C(=O)N[C@@H](C(C)C)C(=O)N[C@H]2CC[C@@H](O)N1C2=O [Ahp4] | HTRA2 inhibition potency relative to Ahp1 ([4]; compared with Ahp1): more than ten-fold more potent
7 |  |  |  |  | > 50 | CC(C)C[C@H]1C(=O)N(C)[C@@H](Cc2ccccc2)C(=O)N[C@@H](Cc2ccccc2)C(=O)O[C@H](C)[C@H](NC(=O)[C@H](C)NC(=O)[C@H](C)NC(=O)OCc2ccccc2)C(=O)N[C@@H](C(C)C)C(=O)N[C@H]2CC[C@@H](O)N1C2=O [Ahp8] | 
8 | 8.2 ± 2.7 | 3 ± 0.5 |  | 4.1 ± 0.4 | > 50 | CC(C)C[C@H]1C(=O)N(C)[C@@H](Cc2ccccc2)C(=O)N[C@@H](C(C)C)C(=O)O[C@H](C)[C@H](NC(=O)[C@H](C)NC(=O)[C@H](C)NC(=O)OCc2ccccc2)C(=O)N[C@@H](C(C)C)C(=O)N[C@H]2CC[C@@H](O)N1C2=O [Ahp1] | Ki [3, 8]: 0.019 ± 0.003 µM
9 | > 50 | > 50 |  | > 50 |  | CC(C)C[C@H]1C(=O)N(C)[C@@H](Cc2ccccc2)C(=O)N[C@@H](C(C)C)C(=O)O[C@H](C)[C@H](NC(=O)[C@H](C)NC(=O)[C@H](C)NC(=O)OCc2ccccc2)C(=O)N[C@@H](Cc2ccccc2)C(=O)N[C@H]2CC[C@@H](O)N1C2=O [Ahp2] | Ki [3, 8]: > 50 µM; Ki [6]: > 50 µM
10 | 7 | > 50 | 0.13 | 0.69 |  | CCC[C@@H]1NC(=O)[C@@H](NC(=O)[C@H](C)NC(=O)[C@H](C)NC(=O)OCc2ccccc2)[C@@H](C)OC(=O)[C@H](C(C)C)NC(=O)[C@H](Cc2ccccc2)N(C)C(=O)[C@H](CC(C)C)N2C(=O)[C@H](CC[C@H]2O)NC1=O [Ahp15] | 
11 | 2.97 | 1.46 | 0.47 | 0.7 |  | CC[C@@H]1NC(=O)[C@@H](NC(=O)[C@H](C)NC(=O)[C@H](C)NC(=O)OCc2ccccc2)[C@@H](C)OC(=O)[C@H](C(C)C)NC(=O)[C@H](Cc2ccccc2)N(C)C(=O)[C@H](CC(C)C)N2C(=O)[C@H](CC[C@H]2O)NC1=O [Ahp14] | 
12 |  |  |  |  | > 50 | CC(C)[C@@H]1NC(=O)[C@@H](NC(=O)[C@H](C)NC(=O)[C@H](C)NC(=O)OCc2ccccc2)[C@@H](C)OC(=O)[C@H](C(C)C)NC(=O)[C@H](Cc2ccccc2)N(C)C(=O)[C@H](Cc2ccccc2)N2C(=O)[C@H](CC[C@H]2O)NC1=O [Ahp6] | 
13 | > 50 | > 50 |  | 6.9 ± 1.5 | > 50 | CC(C)C[C@H]1C(=O)N(C)[C@@H](C)C(=O)N[C@@H](C(C)C)C(=O)O[C@H](C)[C@H](NC(=O)[C@H](C)NC(=O)[C@H](C)NC(=O)OCc2ccccc2)C(=O)N[C@@H](C(C)C)C(=O)N[C@H]2CC[C@@H](O)N1C2=O [Ahp7] | Ki [3, 8]: 0.11 ± 0.02 µM
14 | > 50 | 0.84 | 0.16 | 1.38 |  | C=CC[C@@H]1NC(=O)[C@@H](NC(=O)[C@H](C)NC(=O)[C@H](C)NC(=O)OCc2ccccc2)[C@@H](C)OC(=O)[C@H](C(C)C)NC(=O)[C@H](Cc2ccccc2)N(C)C(=O)[C@H](CC(C)C)N2C(=O)[C@H](CC[C@H]2O)NC1=O [Ahp17] | 
15 | 4.26 | 0.98 | 0.026 | 0.26 |  | CC(C)C[C@H]1C(=O)N(C)[C@@H](Cc2ccccc2)C(=O)N[C@@H](C(C)C)C(=O)O[C@H](C)[C@H](NC(=O)[C@H](C)NC(=O)[C@H](C)NC(=O)OCc2ccccc2)C(=O)N[C@@H](C)C(=O)N[C@H]2CC[C@@H](O)N1C2=O [Ahp13] | 
